# Test results: patent US20200281897A1, “INDAZOLE DERIVATIVES FOR CANCER TREATMENT” (Servicio Andaluz de Salud, priority 2016, published 2020)
# Assays:
# [1] = tested on: RPMI; test: Cell viability by flow cytometry (annexin V/7-AAD), RPMI; assay type: cell-based, human; details: 18 hours
# Protocol: (§1) The cell viability of the MM cell lines and primary cells from healthy PB donors was also evaluated by flow cytometry using 7-AAD/Annexin V. Patient bone marrow (BM) cells were analyzed using 7-AAD with a combination of monoclonal antibodies against myeloma-associated antigens (anti-CD56-APC, anti-CD45-Pacific Blue, and anti-CD38-APC-H7 [BD Biosciences]) and antibodies for distinguishing the granulomonocytic population (anti-CD64-FITC) and lymphocytic population (anti-CD45-Pacific Blue). The cells were acquired by means of FACSCanto II flow cytometer (BD Biosciences) and analyzed using Infinicyt™ Software (Cytognos, Spain).
# [2] = tested on: granulomonocytes (CD64+) and lymphocytes (CD45+); test: Ex vivo viability of normal cell subpopulations of patient bone marrow by flow cytometry; assay type: cell-based, human
# Protocol: (§2) In vitro studies were carried out using six different human MM cell lines, U266, RPMI8226, MM1S, MM1R, U266-LR7, and RPMI-LR5. For ex vivo assays, human primary cells from healthy donors and MM patients were used (Table 1). Human MM cell lines U266, RPMI8226, and MM1.S were acquired from ATCC and lines U266-LR7, RPMI-LR5, and MM1.R were kindly provided by Dr. Enrique Ocio (Hospital Universitario de Salamanca, Spain). The primary cells were obtained from bone marrow (BM) aspirates or peripheral blood (PB) samples, and the peripheral blood mononuclear cells (PBMCs) were isolated by Ficoll-Hypaque centrifugation and washed twice in phosphate buffered saline (PBS) containing 1% BSA. […]
# as §1
# [3] = tested on: hematopoietic stem cells (CD34+); test: Viability of hematopoietic stem cells from healthy donors (MTT); assay type: cell-based, human; details: 0-50 μM, 18 hours
# Protocol: as §2, with “BSA. Hematopoietic stem cells and B and T lymphocytes were isolated from healthy PB donors by positive immunomagnetic separation using human MACS CD34+, CD19+, and CD3+ microbeads, respectively. MM plasma cells were obtained from the bone marrow (BM) of patients with an infiltration of cells of more than 30% (Table 1).” for “BSA.”
# The MM cell lines and primary cells were exposed to different doses of indazole compounds, and viability was evaluated at 18, 48, and 72 hours. […] Cell viability was determined using the MTT assay Cell Counting Kit-8 (Dojindo, Kumamoto, Japan) according to the manufacturer's instructions.
# [4] = tested on: U266, U266-LR7, RPMI and RPMI-LR5; test: Synergy of WIN-55 with anti-myeloma agents, MTT and combination index; assay type: cell-based, human
# Protocol: The evaluation of the synergy of the indazole compound WIN-55 with other anti-myeloma agents, such as dexamethasone and melphalan, was done by evaluating cell viability by means of an MTT assay.
# Unless otherwise indicated, an experiment representative of at least three independent experiments is shown. For all the statistical analyses, the data was analyzed by means of Student's T-test with the SPSS software with a statistical significance P≤0.05. The means and standard deviations were also determined. The synergy was calculated using R as described in the Calcusyn software; a combination index (CI)<1 indicates synergy, and >1 indicates antagonism.
# [5] = tested on: U266; test: Mitochondrial transmembrane potential analysis (TMRE); assay type: cell-based, human; details: U266, 50 μM, from 15 minutes
# Protocol: Cell lines U266 were exposed to 50 μM of WIN-55 for 15, 30, 45, and 60 minutes. The loss of mitochondrial membrane potential (Aym) was calculated using TRME (tetramethylrhodamine-ethyl-ester-perchlorate) according to the manufacturer's instructions and CCCP (2-[2-(3-chlorophenyl)hydrazinylidene] propanedinitrile) was used as a control to induce the loss of Aym.
# [6] = tested on: KG-1; test: WST-1 cell viability assay, KG-1; assay type: cell-based, human; details: KG-1, 18 hours
# Protocol: U937, NB-4, KG-1, and MOLM-13 (DMSZ, Braunschweig, Germany) were cultured in complete RPMI 1640 medium (with 2 mM of L-glutamine, 100 mg of penicillin, 100 μg/ml of streptomycin, and with 10% FBS), supplemented with 10 mM HEPES, 1×NaPuvuvato, and 1× non-essential amino acids.
# The cell lines and primary cells were cultured in 96-well plates (5×10e5 cells per well) with the addition of the indicated concentrations of WIN 55,212-2 or PGN cannabinoids in DMSO or with the solvent only in triplicate at 18, 48, and 72 hours. Caspase inhibitor Z-VAD (OMe)-FMK or the CB2 receptor antagonist PGN-8, -37, and -70, together with the cannabinoid WIN-55,212-2, were also added. Cell viability was determined by means of the WST-1 assay [2-(4-iodophenyl)-3-(4-nitrophenyl)-5-(2,4-disulfophenyl)-2H-tetrazolium] according to the manufacturer's instructions (Dojindo Molecular Technologies). Optical densities were measured at 450 nm using a Multiskan™ Go Microplate plate reader (Thermo Fisher Scientific, Waltham, Mass., USA).
# Now it will be analyzed whether the exposure to cannabinoids had any effect on the viability of the tumor cells in vitro. […]
# [7] = tested on: HL60 cells; test: Murine model of AML (HL60 in NSG mice); assay type: in vivo; details: 5 mg/kg/day
# Text: The NOD/scid/IL-2R gammae null (NSG) mice were acquired from Charles River Laboratories International (L'Arbresle, France) and received food and water ad libitum, under specific pathogen-free conditions. When the mice were 8-12 weeks old, AML was induced by intravenous inoculation of the HL60 cell line, and the mice were monitored to confirm progression of the disease by means of studying weight loss and detecting human CD45+ cells in bone marrow BM aspirates and flow cytometry analysis. Once the presence of leukemia cells was confirmed, treatment with a vehicle, WIN-55 212 cannabinoid was administered at a dose of 5 mg/kg/day or cytarabine (ARA-C) at 50 mg/kg for 5 days.
smiles,measurement,setting,value
"CS(=O)(=O)O.Cc1c(C(=O)c2cccc3ccccc23)c2cccc3c2n1[C@H](CN1CCOCC1)CO3 [WIN-55, (R)-(+)-[2,3-dihydro-5-methyl-3-(4-morpholinomethyl)-pyrrolo[1,2,3]-1,4-benzoxazin-6-yl]-1-naphthalenylmethanone mesylate]",IC50,[1],12.7 µM
same,cell viability of normal cell subpopulations from patient bone marrow,"[2]; granulomonocytes (CD64+) and lymphocytes (CD45+), 0-50 μM, 18 hours",barely affected
same,effect on the lymphocyte population (CD45+),"[2]; highest dose tested, 50 μM",induced an antiproliferative effect
same,hematopoietic stem cell viability,[3],not affected
same,combination effect (combination index) with dexamethasone,"[4]; WIN-55 20 μM (U266, U266-LR7, RPMI-LR5) or 10 μM (RPMI) plus DEX",synergistic effect
same,combination effect (combination index) with melphalan,"[4]; WIN-55 20 μM (U266, U266-LR7, RPMI-LR5) or 10 μM (RPMI) plus MPH",synergistic effect
same,mitochondrial membrane potential,[5],early loss of mitochondrial membrane potential
same,% viable cells at 50 μM,[6],57.4%
same,IC50,[6],33.2 µM
same,number of HL60 cells in bone marrow,[7],vast reduction
same,survival,[7]; versus control group and ARA-C group,significant increase in survival
